Assay results: the NIST ThermoML archive (doi:10.1016/j.jct.2015.05.006)

What was measured:
[1] = xn = mol fraction of the nth substance listed; conditions: 96.6 kPa, Liquid, Vibrating tube method
[2] = relative permittivity at various frequencies (dimensionless); xn = mol fraction of the nth substance listed; conditions: 96.6 kPa, Liquid, Frequency=1 MHz, Parallel plate capacitor

COCCOC [1,2-dimethoxyethane] + C1CCCCC1
Conditions	mass density, [1] [kg/m3]	relative permittivity, [2]
288.15 K, x2 = 0	872.06	7.41
288.15 K, x2 = 0.0459	–	7.02
288.15 K, x2 = 0.0497	865.63	–
288.15 K, x2 = 0.1021	859.14	–
288.15 K, x2 = 0.1034	–	6.56
288.15 K, x2 = 0.1974	847.96	–
288.15 K, x2 = 0.2009	–	5.84
288.15 K, x2 = 0.3013	–	5.17
288.15 K, x2 = 0.3031	836.42	–
288.15 K, x2 = 0.4026	826.35	–
288.15 K, x2 = 0.4027	–	4.55
288.15 K, x2 = 0.4967	817.52	–
288.15 K, x2 = 0.5031	–	3.99
288.15 K, x2 = 0.5998	808.62	3.51
288.15 K, x2 = 0.6961	801.06	–
288.15 K, x2 = 0.7015	–	3.06
288.15 K, x2 = 0.7953	–	2.69
288.15 K, x2 = 0.8006	793.78	–
288.15 K, x2 = 0.9017	–	2.33
288.15 K, x2 = 0.9033	787.7	–
288.15 K, x2 = 0.9494	–	2.19
288.15 K, x2 = 0.9514	785.33	–
298.15 K, x2 = 0	861.17	7.07
298.15 K, x2 = 0.0446	855.02	–
298.15 K, x2 = 0.0475	–	6.7
298.15 K, x2 = 0.0978	848.89	–
298.15 K, x2 = 0.098	–	6.31
298.15 K, x2 = 0.1963	837.39	–
298.15 K, x2 = 0.2057	–	5.58
298.15 K, x2 = 0.3034	–	4.96
298.15 K, x2 = 0.3038	825.79	–
298.15 K, x2 = 0.3952	–	4.43
298.15 K, x2 = 0.4024	815.96	–
298.15 K, x2 = 0.5013	806.83	–
298.15 K, x2 = 0.5077	–	3.84
298.15 K, x2 = 0.6014	–	3.41
298.15 K, x2 = 0.6054	798.09	–
298.15 K, x2 = 0.7018	790.78	–
298.15 K, x2 = 0.7093	–	2.96
298.15 K, x2 = 0.7994	–	2.63
298.15 K, x2 = 0.8023	784.01	–
298.15 K, x2 = 0.8965	778.59	–
298.15 K, x2 = 0.9016	–	2.3
298.15 K, x2 = 0.9498	776	–
298.15 K, x2 = 0.952	–	2.16
308.15 K, x2 = 0	850.13	6.75
308.15 K, x2 = 0.0454	844.13	–
308.15 K, x2 = 0.0456	–	6.42
308.15 K, x2 = 0.0969	838.11	–
308.15 K, x2 = 0.0976	–	6.05
308.15 K, x2 = 0.1954	826.9	–
308.15 K, x2 = 0.1983	–	5.41
308.15 K, x2 = 0.299	–	4.83
308.15 K, x2 = 0.2993	815.83	–
308.15 K, x2 = 0.3959	–	4.29
308.15 K, x2 = 0.4037	805.56	–
308.15 K, x2 = 0.4993	–	3.77
308.15 K, x2 = 0.5042	796.44	–
308.15 K, x2 = 0.6002	–	3.32
308.15 K, x2 = 0.6072	787.93	–
308.15 K, x2 = 0.6995	781.05	–
308.15 K, x2 = 0.7005	–	2.93
308.15 K, x2 = 0.8004	774.34	–
308.15 K, x2 = 0.8012	–	2.58
308.15 K, x2 = 0.902	–	2.27
308.15 K, x2 = 0.904	768.62	–
308.15 K, x2 = 0.9514	–	2.14
308.15 K, x2 = 0.9535	766.31	–
